Key:
[1] = Stability of diluted topotecan solutions in plastic bags at room temperature; format: physicochemical
Protocol: Solution Preparation--When the 5 mg vial is reconstituted with 2 ml of Sterile Water for Injection, USP, each ml will contain 2.5 mg of topotecan as the base and 50 mg of mannitol, USP. Topotecan must not be diluted or mixed with buffered solutions because of solubility and stability considerations.
Stability--Shelf life surveillance of the intact vials is ongoing. Because the single-use lyophilized dosage form contains no antibacterial preservatives, it is advised that the reconstituted solution be discarded eight hours after initial entry into the vial. Futher dilutions of the reconstituted solution to concentrations of 0.02 mg/ml and 0.1 mg.ml in 5% Dextrose Injection, USP, ("D5W") or 0.9% Sodium Chloride Injection, USP, ("NS") in plastic bags stored at room temperature yielded the following stability results: […]

[2] = Stability of diluted topotecan in a hang-bag; format: physicochemical; conditions: 24 hours
Protocol: Topotecan diluted in saline (10 ug/ml or 500 ug/ml) or dextrose (6.7 ug/ml or 330 ug/ml) is stable in a hang-bag for 24 hours with at least 95% recovery.

ovarian cancer = experiment: Treatment of a human patient with ovarian cancer, tumor size regression evaluated by CAT scan; format: in vivo; conditions: one platinum-refractory patient, 1.5 mg/m^2/day i.v. for five consecutive days, sustained at least until the tenth treatment
Protocol: One human patient with ovarian cancer, who was refractory to two previous platinum-containing regimens (i.e., cisplatin-cyclophosphamide combination regimen and treatment with single agent carboplatin), received a course of therapy comprising intravenous administration of 1.5 mg of topotecan/m^2 of body surface area per day for five consecutive days. This course of therapy was repeated […] nine more times to date at twenty-one day intervals (from the date of initiation of therapy) for a total of ten treatments. Tumor size regression was evaluated by CAT (computerized axial tomography) scan. […] At least until the tenth treatment, this clinically significant response was sustained, i.e., a greater than fifty percent (50%) tumor size regression was obtained.

In the case of CC[C@@]1(O)C(=O)OCc2c1cc1n(c2=O)Cc2cc3c(CN(C)C)c(O)ccc3nc2-1 [Topotecan, (S)-10[(dimethylamino)methyl]-4-ethyl-4,9-dihydroxy-1 H-pyrano[3',4':6,7]indolizino[1,2-b]quinolone-3,14(4 H,12 H)-dione], the “Percentage of Initial Topotecan Remaining in Solution” value ([1]; D5W, 0.02 mg/ml, 0 hrs) is reported as 100.00%, the “Percentage of Initial Topotecan Remaining in Solution” value ([1]; D5W, 0.02 mg/ml, 6 hrs) is reported as 99.29% and the “Percentage of Initial Topotecan Remaining in Solution” value ([1]; D5W, 0.02 mg/ml, 24 hrs) is reported as 102.30%. The “Percentage of Initial Topotecan Remaining in Solution” value ([1]; D5W, 0.02 mg/ml, 48 hrs) was 101.98%, the “Percentage of Initial Topotecan Remaining in Solution” value ([1]; D5W, 0.1 mg/ml, 0 hrs) was 100.00% and the “Percentage of Initial Topotecan Remaining in Solution” value ([1]; D5W, 0.1 mg/ml, 6 hrs) was 99.68%. The “Percentage of Initial Topotecan Remaining in Solution” value ([1]; D5W, 0.1 mg/ml, 24 hrs) was 98.16%, the “Percentage of Initial Topotecan Remaining in Solution” value ([1]; D5W, 0.1 mg/ml, 48 hrs) was 97.91% and the “Percentage of Initial Topotecan Remaining in Solution” value ([1]; NS, 0.02 mg/ml, 0 hrs) was 100.00%. For the same compound, the “Percentage of Initial Topotecan Remaining in Solution” value ([1]; NS, 0.02 mg/ml, 6 hrs) was 98.58%, the “Percentage of Initial Topotecan Remaining in Solution” value ([1]; NS, 0.02 mg/ml, 24 hrs) was 96.01% and the “Percentage of Initial Topotecan Remaining in Solution” value ([1]; NS, 0.02 mg/ml, 48 hrs) was 102.03%. For the same compound, the “Percentage of Initial Topotecan Remaining in Solution” value ([1]; NS, 0.1 mg/ml, 0 hrs) was 100.00%, the “Percentage of Initial Topotecan Remaining in Solution” value ([1]; NS, 0.1 mg/ml, 6 hrs) was 97.71% and the “Percentage of Initial Topotecan Remaining in Solution” value ([1]; NS, 0.1 mg/ml, 24 hrs) was 98.30%. The “Percentage of Initial Topotecan Remaining in Solution” value ([1]; NS, 0.1 mg/ml, 48 hrs) was 98.35%, the “recovery (stable in a hang-bag)” value ([2]; dextrose, 6.7 ug/ml or 330 ug/ml) was “at least 95%” and the “recovery (stable in a hang-bag)” value ([2]; saline, 10 ug/ml or 500 ug/ml) was “at least 95%”. The “tumor size regression, sustained” value (ovarian cancer) was greater than 50%.

From patent US5674872A, “Treatment of ovarian cancer” (SmithKline Beecham Corporation, priority 1995, dated 1997)
